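96-well plates; 48 h exposure; 5 concentrations. Endpoints by linear interpolation between flanking doses. Not reached: highest tested concentration assigned. At the GI50, growth is halved. Definition used: TGI = concentration required for complete inhibition of growth.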
What was measured:
Experiment in all cases: DTP human tumour cell line panel, 48 h
[1] = tested on: CAKI-1 renal
[2] = tested on: M14 melanoma
[3] = tested on: NCI-H23 lung
[4] = tested on: NCI-H522 lung
[5] = tested on: SF-295 CNS
[6] = tested on: SF-539 CNS
[7] = tested on: SK-MEL-28 melanoma
[8] = tested on: SN12C renal
[9] = tested on: SNB-19 CNS
[10] = tested on: UACC-257 melanoma

Row | Compound | GI50 [1] [µM] | TGI [1] [µM] | GI50 [2] [µM] | TGI [2] [µM] | GI50 [3] [µM] | TGI [3] [µM] | GI50 [4] [µM] | TGI [4] [µM] | GI50 [5] [µM] | TGI [5] [µM] | GI50 [6] [µM] | TGI [6] [µM] | GI50 [7] [µM] | TGI [7] [µM] | GI50 [8] [µM] | TGI [8] [µM] | GI50 [9] [µM] | TGI [9] [µM] | GI50 [10] [µM] | TGI [10] [µM]
1 | COc1cc(C)[nH]c(=O)c1CN1CCc2c(Cl)cc([C@H](OC)C3COC3)c(Cl)c2C1=O | > 100 | > 100 | > 100 | > 100 | > 100 | > 100 | > 100 | > 100 | > 100 | > 100 | > 100 | > 100 | > 100 | > 100 | > 100 | > 100 | > 100 | > 100 | > 100 | > 100
2 | COC1OC(CBr)C(OC(c2ccccc2)(c2ccccc2)c2ccccc2)C(OC(c2ccccc2)(c2ccccc2)c2ccccc2)C1OC(c1ccccc1)(c1ccccc1)c1ccccc1 (stereo not given) | – | > 100 | – | > 100 | – | > 100 | – | 40.8 | – | > 100 | – | 68.7 | – | > 100 | – | > 100 | – | > 100 | – | > 100
3 | CCN(CC)C(=O)CNC(=O)OC(C)(C)C | – | > 100 | – | > 100 | – | > 100 | – | > 100 | – | > 100 | – | > 100 | – | > 100 | – | > 100 | – | > 100 | – | > 100
4 | C#Cc1cccc(Nc2ncnc3ccc(-c4cnc(Cl)c(NS(C)(=O)=O)c4)cc23)c1 | 0.164 | 1.82 | 0.368 | 2.41 | 0.385 | 8.03 | 0.332 | 4.33 | 0.376 | 2.17 | 0.302 | 1.68 | 0.182 | 1.93 | 0.292 | > 54 | 0.374 | 5.7 | 0.307 | 6.57
5 | O=C1NC(=O)C(=O)C(c2nc3ccccc3s2)C1=O | – | > 100 | – | > 100 | – | > 100 | – | > 100 | – | > 100 | – | > 100 | – | > 100 | – | > 100 | – | > 100 | – | > 100
6 | Oc1cccc(Cn2c(-c3cccc(O)c3O)nc3ccccc32)c1O | 2.26 | 5.85 | 3.3 | 15.5 | 3.02 | 14.1 | 7.88 | 49.1 | 1.88 | 10.5 | 9.49 | 38.4 | 10.9 | 27.6 | 3.4 | 16.3 | 13.8 | > 100 | 19.3 | 50.1
7 | Cc1ccc(NC(=O)CC/C(CC(=O)c2ccc(Cl)cc2)=N\NC(=O)C(=O)NN)cc1C | – | > 100 | – | > 100 | – | > 100 | – | > 100 | – | > 100 | – | > 100 | – | > 100 | – | > 100 | – | > 100 | – | > 100
8 | N#Cc1nn(C2OC(COC(=O)c3ccccc3)C(OC(=O)c3ccccc3)C2OC(=O)c2ccccc2)c2nc[nH]c(=O)c12 (stereo not given) | – | > 100 | – | > 100 | – | > 100 | – | > 100 | – | > 100 | – | > 100 | – | > 100 | – | > 100 | – | > 100 | – | > 100

Source: PubChem BioAssay (NCI)
